Measurements: EP4585588A1, “BENZIMIDAZOLE COMPOUND, AND PREPARATION METHOD THEREFOR AND USE THEREOF” (Suzhou Pharmavan Co., Ltd., priority 2022, dated 2024)

System: Primary cardiomyocytes of suckling rats
Experiment: Area measurement of cardiomyocytes after PE injury
Type: cell-based
Conditions: 10 µM compound, PE 20 µM for 48 hours
Method: Primary cardiomyocytes of suckling rats were isolated and cultured and inoculated on a cell culture plate. A drug stock solution was taken and separately added to cell wells according to a certain dilution ratio, and a final concentration was 10 µM. After half hour of drug action, a phenylephrine (PE) stock solution was added, and a final concentration of PE was 20 µM. After 48 hours of PE action, cell samples were collected for real-time quantitative PCR assay or cell area measurement.
Separation and plating of cardiomyocytes of rats: a certain number of SPF suckling rats were taken and placed in a clean bench according to an actual requirement for the number of cells, thoracic cavities were opened by scissors, hearts were separated, and the hearts were cut into tissue fragments with sterilized surgical scissors; Collagenase Type II (manufacturer: Sigma, article No.: C2-28-100MG) was added to a D-HANKS balanced salt buffer to prepare a […] enzyme digestion solution, and the tissue fragments of hearts were continuously digested for three times in a 37 °C constant-temperature water bath box; about 2 mL of the enzyme digestion solution was added for the first time, a supernatant was discarded after digestion, centrifugation and precipitation of cardiomyocytes and tissue fragments, about 4 mL of the enzyme digestion solution was independently added for the second time and the third time to continue digestion, a supernatant was remained each time, DMEM containing 10% FBS with the same volume as the digestion solution in the supernatant was immediately added to neutralize digestive enzymes, the supernatants for the second time and the third time were combined and centrifuged, a supernatant was discarded, an appropriate amount of DMEM containing 10% FBS was added to resuspend the cardiomyocytes, the cardiomyocytes were inoculated in a 100 mm culture plate and subjected to differential adhesion in a constant-temperature cell incubator for 2 h, and a supernatant was taken for cell count.
Area measurement of cardiomyocytes of rats: a 24-well plate precoated with 1% gelatin was taken and plated at 1.0×10^3 cells/well, 500 µL of a 10% FBS+DMEM medium was contained in each well, and cells were cultured in a 37 °C constant-temperature cell incubator for 24 h; different compounds were independently prepared into a 100 mM mother liquor with DMSO and gradient diluted with a 10% FBS+DMEM medium to prepare a 10 µM final solution of the compound containing […]; the medium in the 24-well plate was discarded and replaced with a 500 µL/well medium containing a 10 µM compound, and three replicate wells and a negative control well were set for each compound; after 0.5 hours of drug action, PE (manufacturer: Meilun Biotechnology; article No.: MB1602) with a final concentration of 20 µM was added to each well, and no PE was added to the negative control wells; after 48 hours of PE action, at least five fields of view were randomly selected from each well under an inverted microscope (manufacturer: Nikon; model: Eclipse TS100), and the cell area data was calculated by Image J software; the area of the cells in the negative control wells was set to 1, the cell area hypertrophy multiples of the PE wells and each administration well were calculated separately, and statistical analysis was performed using the One-Way ANOVA method.
The cardiomyocyte area was directly measured and the differences between the groups were compared for verification. The cardiomyocytes were co-intervened with PE and drugs and placed under a microscope for direct observation, and images were taken. The cell area data was calculated using Image J software. […]

COc1ccc(F)cc1-c1ccc2[nH]cnc2c1 [Formula I-24-A, 5-(5-fluoro-2-methoxyphenyl)-1H-benzimidazole, reference compound] was tested, and the “cardiomyocyte area compared with the PE group (result in words)” value was “no apparent improvement effect”.

Same assay, conditions: 48 h, 10 µM

Going from COc1ccc(F)cc1-c1ccc2[nH]cnc2c1 [Formula I-24-A, 5-(5-fluoro-2-methoxyphenyl)-1H-benzimidazole, reference compound] to Oc1ccc(F)cc1-c1ccc2[nH]cnc2c1 [Formula I-24, 4-fluoro-2-(1H-benzimidazol-5-yl)phenol], the “Cell Area Hypertrophy Multiple (Mean±Standard Deviation) Compared with Control Wells” value falls from 1.77±0.11 to 1.36±0.12.

System: myosin heavy chain β (β-MHC)
Experiment: not given
Conditions: 48 h, 10 µM

First: Cc1nc2cc(-c3cc(CC#N)ccc3O)ccc2[nH]1 [Formula I-18, 2-(4-hydroxy-3-(2-methyl-1H-benzimidazol-5-yl)phenyl)acetonitrile]
Second: COC(=O)c1ccc(O)c(-c2ccc3[nH]c(C)nc3c2)c1 [Formula I-12, methyl 4-hydroxy-3-(2-methyl-1H-benzimidazol-5-yl) benzoate]
The “Mean (real-time quantitative PCR validation results of cardiomyocyte β-MHC)” value of the first is lower: 1.18 for the first, 1.19 for the second.

Compared with C=CCc1cc(C#N)c(O)c(-c2ccc3[nH]cnc3c2)c1 [Formula I-41, 5-allyl-3-(1H-benzimidazol-5-yl)-2-hydroxybenzonitrile], C=CCc1cc(F)c(O)c(-c2ccc3[nH]cnc3c2)c1 [Formula I-40, 4-allyl-2-(1H-benzimidazol-5-yl)-6-fluorophenol] is lower in “Mean (real-time quantitative PCR validation results of cardiomyocyte β-MHC)” value: 1.37 for the first, 1.28 for the second.

First: Cc1nc2cc(-c3cc(C(=O)N(C)C)cc(C#N)c3C(C)O)ccc2[nH]1 (centres unmarked) [Formula II-57, 3-cyano-4-(1-hydroxyethyl)-N,N-dimethyl-5-(2-methyl-1H-benzimidazol-5-yl)benzamide]
Second: Cc1nc2cc(-c3cc(C(N)=O)cc(C#N)c3C(C)O)ccc2[nH]1 (centres unmarked) [Formula II-54, 3-cyano-4-(1-hydroxyethyl)-5-(2-methyl-1H-benzimidazol-5-yl)benzamide]
The “Mean (real-time quantitative PCR validation results of cardiomyocyte β-MHC)” value of the first is lower: 1.26 for the first, 1.28 for the second.

First: CC(C)(O)c1ccc(F)cc1-c1ccc2[nH]cnc2c1 [Formula II-25, 2-(4-fluoro-2-(1H-benzimidazol-5-yl)phenyl)propane-2-ol]
Second: CC(C)(O)c1c(F)cc(F)cc1-c1ccc2[nH]cnc2c1 [Formula II-26, 2-(2,4-difluoro-6-(1H-benzimidazol-5-yl)phenyl)propane-2-ol]
The “Mean (real-time quantitative PCR validation results of cardiomyocyte β-MHC)” value of the first is higher: 1.52 for the first, 1.42 for the second.

First: CCCc1ccc(O)c(-c2ccc3[nH]cnc3c2)c1 [Formula I-45, 2-(1H-benzimidazol-5-yl)-4-propylphenol]
Second: NC(=O)c1ccc(O)c(-c2ccc3[nH]cnc3c2)c1 [Formula I-27, 4-hydroxy-3-(1H-benzimidazol-5-yl)benzamide]
The “Mean (real-time quantitative PCR validation results of cardiomyocyte β-MHC)” value of the first is higher: 1.39 for the first, 1.27 for the second.

Going from CC(C)(O)c1c(C#N)cc(C(=O)O)cc1-c1ccc2[nH]cnc2c1 [Formula II-36, 3-cyano-4-(2-hydroxypropan-2-yl)-5-(1H-benzimidazol-5-yl)benzoic acid] to CC(C)(O)c1c(C#N)cc(C(N)=O)cc1-c1ccc2[nH]cnc2c1 [Formula II-30, 3-cyano-4-(2-hydroxypropan-2-yl)-5-(1H-benzimidazol-5-yl)benzamide], the “Mean (real-time quantitative PCR validation results of cardiomyocyte β-MHC)” value falls from 1.41 to 1.21.

Going from C=CCc1ccc(C(C)O)c(-c2ccc3[nH]c(C)nc3c2)c1 (centres unmarked) [Formula II-64, 1-(4-allyl-2-(2-methyl-1H-benzimidazol-5-yl)phenyl)ethane-1-ol] to Cc1nc2cc(-c3cc(F)ccc3C(C)O)ccc2[nH]1 (centres unmarked) [Formula II-49, 1-(4-fluoro-2-(2-methyl-1H-benzimidazol-5-yl)phenyl)ethane-1-ol], the “Mean (real-time quantitative PCR validation results of cardiomyocyte β-MHC)” value rises from 1.22 to 1.36.

Going from CC(O)c1ccc(CC#N)cc1-c1ccc2[nH]cnc2c1 (centres unmarked) [Formula II-91, 2-(4-(1-hydroxyethyl)-3-(1H-benzimidazol-5-yl)phenyl)acetonitrile] to CC(O)c1ccc(C(=O)O)cc1-c1ccc2[nH]cnc2c1 (centres unmarked) [Formula II-82, 4-(1-hydroxyethyl)-3-(1H-benzimidazol-5-yl)benzoic acid], the “Mean (real-time quantitative PCR validation results of cardiomyocyte β-MHC)” value falls from 1.57 to 1.15.

Going from COC(=O)c1ccc(CO)c(-c2ccc3[nH]cnc3c2)c1 [Formula II-133, methyl 4-(hydroxymethyl)-3-(1H-benzimidazol-5-yl) benzoate] to COC(=O)c1cc(C#N)c(O)c(-c2ccc3[nH]cnc3c2)c1 [Formula I-38, methyl 3-cyano-4-hydroxy-5-(1H-benzimidazol-5-yl) benzoate], the “Mean (real-time quantitative PCR validation results of cardiomyocyte β-MHC)” value falls from 1.46 to 1.26.

Going from Cc1nc2cc(-c3cc(C(N)=O)cc(C#N)c3CO)ccc2[nH]1 [Formula II-102, 3-cyano-4-(hydroxymethyl)-5-(2-methyl-1H-benzimidazol-5-yl)benzamide] to COC(=O)c1cc(C#N)c(C(C)O)c(-c2ccc3[nH]c(C)nc3c2)c1 (centres unmarked) [Formula II-63, methyl 3-cyano-4-(1-hydroxyethyl)-5-(2-methyl-1H-benzimidazol-5-yl) benzoate], the “Mean (real-time quantitative PCR validation results of cardiomyocyte β-MHC)” value rises from 1.28 to 1.36.

Compared with Cc1nc2cc(-c3cc(C(=O)O)ccc3C(C)(C)O)ccc2[nH]1 [Formula II-10, 4-(2-hydroxypropan-2-yl)-3-(2-methyl-1H-benzimidazol-5-yl)benzoic acid], C=CCc1cc(F)c(C(C)(C)O)c(-c2ccc3[nH]c(C)nc3c2)c1 [Formula II-17, 2-(4-allyl-2-fluoro-6-(2-methyl-1H-benzimidazol-5-yl)phenyl)propane-2-ol] is lower in “Mean (real-time quantitative PCR validation results of cardiomyocyte β-MHC)” value: 1.27 for the first, 1.13 for the second.

Going from CCCc1cc(F)c(C(C)O)c(-c2ccc3[nH]cnc3c2)c1 (centres unmarked) [Formula II-95, 1-(2-fluoro-6-(1H-benzimidazol-5-yl)-4-propylphenyl)ethane-1-ol] to CC(O)c1c(C#N)cc(C(N)=O)cc1-c1ccc2[nH]cnc2c1 (centres unmarked) [Formula II-78, 3-cyano-4-(1-hydroxyethyl)-5-(1H-benzimidazol-5-yl)benzamide], the “Mean (real-time quantitative PCR validation results of cardiomyocyte β-MHC)” value rises from 1.24 to 1.35.

Going from CN(C)C(=O)c1cc(F)c(O)c(-c2ccc3[nH]cnc3c2)c1 [Formula I-31, 3-fluoro-4-hydroxy-N,N-dimethyl-5-(1H-benzimidazol-5-yl)benzamide] to C=CCc1cc(C#N)c(C(C)(C)O)c(-c2ccc3[nH]c(C)nc3c2)c1 [Formula II-18, 5-allyl-2-(2-hydroxypropan-2-yl)-3-(2-methyl-1H-benzimidazol-5-yl)benzonitrile], the “Mean (real-time quantitative PCR validation results of cardiomyocyte β-MHC)” value falls from 1.29 to 1.19.

System: Models of Heart Failure due to Pressure Overload of Mice
Experiment: Pharmacodynamic test in mouse models of heart failure due to pressure overload (thoracic aorta ligation)
Type: in vivo, C57BL/6 mice
Conditions: Table 5; 5 mg/kg intraperitoneal once a day for four consecutive weeks; after four weeks of administration (nine weeks of modeling); model group 28.6%
Method: 1.1 Animals healthy C57BL/6 mice
Modeling by thoracic aorta ligation surgery: preoperative echocardiography was performed to exclude mice with abnormal cardiac functions; for mice with normal cardiac functions, anesthesia was performed, and the mice were anesthetized and then transferred into a small animal operating table and fixed; an open airway was established via endotracheal intubation, and anesthesia was maintained; taking the second rib as the center, the skin was cut along the sternum toward the first and third ribs to expose the connection between the second rib and the sternum; the second rib was cut to expose the aorta thoracic segment; the aortic arch was freed, a thin thread was inserted underneath, a thin needle was placed in parallel to the aortic arch for co-ligation; after ligation, the thin needle was withdrawn to observe the condition of the mice, and the mice were sutured layer by layer after stabilization; the mice were placed on the thermal insulation pad to keep warm, and after waking up, the mice were put back into the cage for daily feeding according to the activity.
After five weeks of modeling, echocardiography was performed on the mice to determine the ejection fractions of the hearts of the mice. When the ejection fraction decreased by about 50%, the ejection fraction met the experimental requirements, and the administration experiment started. Animals were grouped randomly and administered according to the ultrasound data, the echocardiography was performed every two weeks until week 9 ended, and pathological section analysis was performed.
The results were expressed using mean±standard error, data analysis was performed using GraphPad Prism statistical software, and the comparison was analyzed using a t-test. P < 0.05 was determined that there was a difference with statistical significance, otherwise P was determined that there was no significant difference.

Compared with COc1ccc(F)cc1-c1ccc2[nH]cnc2c1 [Formula I-24-A, 5-(5-fluoro-2-methoxyphenyl)-1H-benzimidazole, reference compound], Oc1ccc(F)cc1-c1ccc2[nH]cnc2c1 [Formula I-24, 4-fluoro-2-(1H-benzimidazol-5-yl)phenol] is higher in “Ejection Fraction (Mean) of Ventriculus Sinister of Heart” value: 29.4% for the first, 40.0% for the second.

Same assay, conditions: after four weeks of administration (nine weeks of modeling), 5 mg/kg intraperitoneal once a day

With COc1ccc(F)cc1-c1ccc2[nH]cnc2c1 [Formula I-24-A, 5-(5-fluoro-2-methoxyphenyl)-1H-benzimidazole, reference compound] the “effect on the cardiac contractile function (result in words)” value was “no apparent improvement effect”.
